According to ChEMBL document CHEMBL1139815, “Synthesis and characterization of a pegylated derivative of 3-(1,2,3,6-tetrahydro-pyridin-4yl)-1H-indole (IDT199): a high affinity SERT ligand for conjugation to quantum dots” (Bioorg Med Chem Lett, 2007):

Target: Sodium-dependent serotonin transporter (Homo sapiens, UniProt P31645)
Experiment: Displacement of [3H]serotonin from human SERT expressed in HeLa cells
Type: cell-based

Sequence of Sodium-dependent serotonin transporter (P31645 whole entry): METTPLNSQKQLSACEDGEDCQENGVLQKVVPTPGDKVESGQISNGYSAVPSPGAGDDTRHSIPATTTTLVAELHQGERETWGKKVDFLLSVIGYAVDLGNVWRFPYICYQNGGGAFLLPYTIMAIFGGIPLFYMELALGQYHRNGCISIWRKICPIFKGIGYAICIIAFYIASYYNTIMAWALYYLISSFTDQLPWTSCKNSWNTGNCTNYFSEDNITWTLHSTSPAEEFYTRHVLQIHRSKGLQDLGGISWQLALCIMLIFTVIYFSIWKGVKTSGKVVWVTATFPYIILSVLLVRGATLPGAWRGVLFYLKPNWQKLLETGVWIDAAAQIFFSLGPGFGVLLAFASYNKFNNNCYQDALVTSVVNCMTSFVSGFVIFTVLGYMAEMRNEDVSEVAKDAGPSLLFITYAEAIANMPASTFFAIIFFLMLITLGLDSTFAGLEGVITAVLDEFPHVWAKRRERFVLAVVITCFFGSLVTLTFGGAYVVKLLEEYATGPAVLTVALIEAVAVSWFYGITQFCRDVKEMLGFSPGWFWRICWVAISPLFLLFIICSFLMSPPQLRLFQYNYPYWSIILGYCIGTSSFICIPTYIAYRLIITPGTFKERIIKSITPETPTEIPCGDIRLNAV

IC50: 25 nM
SMILES: NCCCCCCCCCCCN1CCC(c2c[nH]c3ccccc23)CC1
